{
  "source": "paper PMC2898210",
  "about": "(ACS medicinal chemistry letters, 2010)",
  "biological_target": "polo-box domain (PBD) of human polo-like kinase 1 (Plk1) (Homo sapiens, UniProt P53350)",
  "sequence (P53350 367-603 limits assumed)": "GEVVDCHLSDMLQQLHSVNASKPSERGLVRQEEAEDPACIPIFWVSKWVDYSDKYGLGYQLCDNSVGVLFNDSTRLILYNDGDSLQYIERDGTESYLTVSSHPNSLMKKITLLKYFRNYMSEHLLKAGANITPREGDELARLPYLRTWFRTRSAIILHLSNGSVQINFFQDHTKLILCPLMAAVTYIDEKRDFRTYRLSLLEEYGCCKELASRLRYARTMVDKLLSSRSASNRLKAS",
  "experiment": "ELISA-based PBD competition assay against p-T78 peptide of PBIP1",
  "type": "binding",
  "data": [
    {"smiles": "O=c1c(O)cccc2cc(O)c(O)c(O)c12", "note": "[compound 2, Purpurogallin]", "values": [
      {"measurement": "Kd", "value": "~2700", "unit": "nM"}
    ]}
  ]
}
